Series [1] deals with Avena fatua. Kind of series: Herbicidal activity against Avena fatua at 250 g/ha after 2 weeks. It counts as functional.
In series [2] the test system is Xanthium strumarium. Kind of series: Herbicidal activity against Xanthium strumarium (cocklebur) 5000 g/ha after 2 weeks. It counts as functional.
For series [3], the system named is Abutilon theophrasti. Kind of series: Herbicidal activity against Abutilon theophrasti (velvetleaf) at 250 g/ha after 2 weeks. It is filed as functional.
Series [4] concerns Avena fatua. Kind of series: Herbicidal activity against Avena fatua at 500 g/ha after 2 weeks. It is filed as functional.
Series [5] has as its system Xanthium strumarium. Kind of series: Herbicidal activity against Xanthium strumarium (cocklebur) 250 g/ha after 2 weeks. It counts as functional.
Series [6] concerns Glycine max. Kind of series: Herbicidal activity against Glycine max (soybean) at 5000 g/ha after 2 weeks. It is filed as organism-based. As to conditions: in vivo, 336 h.
In series [7] the test system is Veronica persica. Kind of series: Herbicidal activity against Veronica persica at 5000 g/ha after 2 weeks. It is filed as functional.
For series [8], the system named is Glycine max. Kind of series: Herbicidal activity against Glycine max (soybean) at 500 g/ha after 2 weeks. It is filed as organism-based. As to conditions: in vivo, 336 h.
The subject of series [9] is Avena fatua. Kind of series: Herbicidal activity against Avena fatua at 5000 g/ha after 2 weeks. It is filed as functional.
In series [10] the test system is Abutilon theophrasti. Kind of series: Herbicidal activity against Abutilon theophrasti (velvetleaf) at 5000 g/ha after 2 weeks. It counts as functional.
Series [11] concerns Echinochloa crus-galli. Kind of series: Herbicidal activity against Echinochloa crus-galli (barnyard grass) at 5000 g/ha after 2 weeks. It is filed as functional.
In series [12] the test system is Triticum aestivum. Kind of series: Herbicidal activity against Triticum aestivum (wheat) at 500 g/ha after 2 weeks. As to conditions: in vivo, 336 h. It is filed as ADME, organism-based.
Series [13] relates to Galium spurium. Kind of series: Herbicidal activity against Galium spurium var. echinospermon (Wally.) Hayek at 500 g/ha after 2 weeks. It is filed as functional.
For series [14], the system named is Glycine max. Kind of series: Herbicidal activity against Glycine max (soybean) at 250 g/ha after 2 weeks. It is filed as organism-based. As to conditions: in vivo, 336 h.
For series [15], the system named is Echinochloa crus-galli. Kind of series: Herbicidal activity against Echinochloa crus-galli (barnyard grass) at 250 g/ha after 2 weeks. It counts as functional.
For series [16], the system named is Galium spurium. Kind of series: Herbicidal activity against Galium spurium var. echinospermon (Wally.) Hayek at 250 g/ha after 2 weeks. It counts as functional.
Series [17] relates to Veronica persica. Kind of series: Herbicidal activity against Veronica persica at 250 g/ha after 2 weeks. It counts as functional.
Series [18] relates to Veronica persica. Kind of series: Herbicidal activity against Veronica persica at 500 g/ha after 2 weeks. It is filed as functional.
The test system of series [19] is Triticum aestivum. Kind of series: Herbicidal activity against Triticum aestivum (wheat) at 250 g/ha after 2 weeks. The note with it: in vivo, 336 h. It is filed as organism-based.
In series [20] the test system is Triticum aestivum. Kind of series: Herbicidal activity against Triticum aestivum (wheat) at 5000 g/ha after 2 weeks. The note with it: in vivo, 336 h. It counts as ADME, organism-based.
Series [21] has as its system Galium spurium. Kind of series: Herbicidal activity against Galium spurium var. echinospermon (Wally.) Hayek at 5000 g/ha after 2 weeks. It counts as functional.
The subject of series [22] is Echinochloa crus-galli. Kind of series: Herbicidal activity against Echinochloa crus-galli (barnyard grass) at 500 g/ha after 2 weeks. It is filed as functional.
Series [23] deals with Abutilon theophrasti. Kind of series: Herbicidal activity against Abutilon theophrasti (velvetleaf) at 500 g/ha after 2 weeks. It is filed as functional.
Series [24] deals with Xanthium strumarium. Kind of series: Herbicidal activity against Xanthium strumarium (cocklebur) 500 g/ha after 2 weeks. It counts as functional.

As for `CCCCNC(=O)c1nc(C)c(C)nc1C(=O)Nc1cc(Cl)ccc1C`, the Activity in the series on Avena fatua [1] is reported as below 10%; in the series with Xanthium strumarium [2], 50%; in the series with Abutilon theophrasti [3], below 10%; with Avena fatua [4] it was below 10%; in the series with Xanthium strumarium [5], below 10%; in the series with Glycine max [6] it was below 10%. Moreover, the Activity in the series on Veronica persica [7] is recorded as 95%; with Glycine max [8] it was below 10%; in the series with Avena fatua [9], below 10%; in the series on Abutilon theophrasti [10], 95%; in the series on Echinochloa crus-galli [11] it was 50%; in the series on Triticum aestivum [12], below 10%. Besides, the Activity with Galium spurium [13] is below 10%; with Glycine max [14], below 10%; with Echinochloa crus-galli [15], below 10%; in the series with Galium spurium [16], below 10%; with Veronica persica [17] it was 10%; in the series on Veronica persica [18] it was 50%. For the same compound, the Activity in the series on Triticum aestivum [19] is listed as below 10%; in the series with Triticum aestivum [20], 30%; with Galium spurium [21], 30%; with Echinochloa crus-galli [22], below 10%; with Abutilon theophrasti [23] it was below 10%; in the series with Xanthium strumarium [24], below 10%.
In the case of `CC[C@H](C)NC(=O)c1nc(C)c(C)nc1C(=O)Nc1cc(Cl)ccc1C`, the Activity with Avena fatua [1] is below 10%; with Xanthium strumarium [2], 95%; with Abutilon theophrasti [3] it was below 10%; in the series with Avena fatua [4] it was below 10%; in the series on Xanthium strumarium [5], below 10%; with Glycine max [6], below 10%. For the same compound, the Activity in the series on Veronica persica [7] was 95%; with Glycine max [8], below 10%; with Avena fatua [9], 30%; in the series with Abutilon theophrasti [10], 95%; in the series on Echinochloa crus-galli [11], 95%; with Triticum aestivum [12], below 10%. In addition, the Activity is below 10% in the series on Galium spurium [13]; below 10% with Glycine max [14]; below 10% in the series with Echinochloa crus-galli [15]; below 10% in the series on Galium spurium [16]; 95% with Veronica persica [17]; 95% with Veronica persica [18]. Besides, the Activity is recorded as below 10% with Triticum aestivum [19]; 30% in the series with Triticum aestivum [20]; 50% in the series with Galium spurium [21]; below 10% in the series on Echinochloa crus-galli [22]; below 10% in the series with Abutilon theophrasti [23]; below 10% in the series on Xanthium strumarium [24].
`CCCNC(=O)c1nc(C)c(C)nc1C(=O)Nc1cc(F)ccc1C`: the Activity with Avena fatua [1] was below 10%; in the series on Xanthium strumarium [2] it was 95%; in the series on Abutilon theophrasti [3], 30%; in the series on Avena fatua [4], below 10%; in the series with Xanthium strumarium [5], 30%; with Glycine max [6], below 10%. Moreover, the Activity in the series with Veronica persica [7] was 95%; with Glycine max [8] it was below 10%; in the series on Avena fatua [9], 10%; with Abutilon theophrasti [10] it was 95%; with Echinochloa crus-galli [11], 30%; in the series with Triticum aestivum [12], below 10%. The Activity in the series with Galium spurium [13] was below 10%; with Glycine max [14], below 10%; in the series on Echinochloa crus-galli [15] it was below 10%; in the series on Galium spurium [16], below 10%; with Veronica persica [17], 95%; with Veronica persica [18] it was 95%. Moreover, the Activity is below 10% in the series on Triticum aestivum [19]; 30% in the series with Triticum aestivum [20]; 95% in the series on Galium spurium [21]; 10% in the series with Echinochloa crus-galli [22]; 30% with Abutilon theophrasti [23]; 95% in the series on Xanthium strumarium [24].
`Cc1ccc(F)cc1NC(=O)c1nc(C)c(C)nc1C(=O)NC(C)(C)C`: the Activity in the series with Avena fatua [1] is below 10%; with Xanthium strumarium [2], 95%; in the series on Abutilon theophrasti [3] it was below 10%; in the series on Avena fatua [4] it was below 10%; with Xanthium strumarium [5] it was below 10%; in the series with Glycine max [6], below 10%. The Activity in the series with Veronica persica [7] was 95%; in the series on Glycine max [8] it was below 10%; in the series on Avena fatua [9], 95%; in the series with Abutilon theophrasti [10], 95%; in the series with Echinochloa crus-galli [11], 70%; with Triticum aestivum [12] it was below 10%. Moreover, the Activity with Galium spurium [13] is reported as below 10%; with Glycine max [14], below 10%; with Echinochloa crus-galli [15], below 10%; in the series on Galium spurium [16], below 10%; in the series on Veronica persica [17], below 10%; in the series with Veronica persica [18], 70%. The Activity with Triticum aestivum [19] is given as below 10%; in the series with Triticum aestivum [20], 30%; in the series with Galium spurium [21] it was 10%; in the series with Echinochloa crus-galli [22], below 10%; in the series on Abutilon theophrasti [23], below 10%; in the series on Xanthium strumarium [24], below 10%.
On to `CCC(C)NC(=O)c1nc(C)c(C)nc1C(=O)Nc1cc(Cl)ccc1C` (racemic), for which the Activity with Avena fatua [1] was below 10%; with Xanthium strumarium [2], 95%; in the series with Abutilon theophrasti [3], below 10%; in the series with Avena fatua [4], below 10%; in the series with Xanthium strumarium [5], below 10%; in the series on Glycine max [6], below 10%. For the same compound, the Activity is recorded as 95% in the series with Veronica persica [7]; below 10% in the series on Glycine max [8]; 50% with Avena fatua [9]; 95% with Abutilon theophrasti [10]; 95% with Echinochloa crus-galli [11]; below 10% in the series with Triticum aestivum [12]. Besides, the Activity in the series with Galium spurium [13] was below 10%; in the series on Glycine max [14], below 10%; in the series with Echinochloa crus-galli [15], below 10%; in the series on Galium spurium [16], below 10%; in the series on Veronica persica [17] it was 70%; in the series on Veronica persica [18], 70%. Besides, the Activity in the series with Triticum aestivum [19] was below 10%; in the series on Triticum aestivum [20] it was 70%; in the series on Galium spurium [21] it was 95%; in the series on Echinochloa crus-galli [22] it was 10%; in the series on Abutilon theophrasti [23] it was below 10%; with Xanthium strumarium [24], below 10%.
With `CCCCNC(=O)c1nc(C)c(C)nc1C(=O)Nc1cc(F)ccc1C`, the Activity is below 10% in the series on Avena fatua [1]; 50% in the series on Xanthium strumarium [2]; below 10% in the series on Abutilon theophrasti [3]; below 10% in the series on Avena fatua [4]; below 10% with Xanthium strumarium [5]; below 10% in the series on Glycine max [6]. For the same compound, the Activity is listed as 95% with Veronica persica [7]; below 10% with Glycine max [8]; below 10% with Avena fatua [9]; 95% with Abutilon theophrasti [10]; 70% in the series on Echinochloa crus-galli [11]; 30% with Triticum aestivum [12]. Moreover, the Activity is given as below 10% with Galium spurium [13]; below 10% in the series on Glycine max [14]; below 10% in the series on Echinochloa crus-galli [15]; below 10% in the series on Galium spurium [16]; 95% with Veronica persica [17]; 95% in the series with Veronica persica [18]. Moreover, the Activity is recorded as below 10% with Triticum aestivum [19]; 30% in the series on Triticum aestivum [20]; 30% in the series with Galium spurium [21]; 10% in the series on Echinochloa crus-galli [22]; below 10% with Abutilon theophrasti [23]; below 10% in the series on Xanthium strumarium [24].
`Cc1ccc(Cl)cc1NC(=O)c1nc(C)c(C)nc1C(=O)NC(C)(C)C`: the Activity is below 10% in the series with Avena fatua [1]; 95% with Xanthium strumarium [2]; below 10% in the series on Abutilon theophrasti [3]; below 10% with Avena fatua [4]; below 10% in the series with Xanthium strumarium [5]; below 10% with Glycine max [6]. The Activity in the series with Veronica persica [7] is 95%; with Glycine max [8], below 10%; in the series with Avena fatua [9], below 10%; in the series with Abutilon theophrasti [10], 95%; with Echinochloa crus-galli [11], 70%; in the series on Triticum aestivum [12], below 10%. In addition, the Activity is reported as below 10% in the series with Galium spurium [13]; below 10% in the series with Glycine max [14]; below 10% in the series with Echinochloa crus-galli [15]; below 10% in the series with Galium spurium [16]; 10% in the series on Veronica persica [17]; 70% in the series with Veronica persica [18]. The Activity with Triticum aestivum [19] was below 10%; in the series with Triticum aestivum [20], 10%; in the series with Galium spurium [21], 30%; in the series with Echinochloa crus-galli [22], below 10%; in the series with Abutilon theophrasti [23], below 10%; with Xanthium strumarium [24], below 10%.
As for `CCC(C)NC(=O)c1nc(C)c(C)nc1C(=O)Nc1cc(F)ccc1C` (racemic), the Activity in the series on Avena fatua [1] is below 10%; with Xanthium strumarium [2] it was 95%; in the series on Abutilon theophrasti [3], 95%; in the series with Avena fatua [4] it was below 10%; in the series with Xanthium strumarium [5], below 10%; with Glycine max [6] it was below 10%. Also, the Activity is 95% with Veronica persica [7]; below 10% with Glycine max [8]; 30% with Avena fatua [9]; 95% in the series on Abutilon theophrasti [10]; 30% in the series on Echinochloa crus-galli [11]; 30% in the series on Triticum aestivum [12]. The Activity with Galium spurium [13] is on record as below 10%; in the series with Glycine max [14] it was below 10%; in the series on Echinochloa crus-galli [15], below 10%; in the series on Galium spurium [16], below 10%; with Veronica persica [17] it was 95%; in the series on Veronica persica [18], 95%. Also, the Activity with Triticum aestivum [19] was below 10%; in the series with Triticum aestivum [20] it was 50%; in the series on Galium spurium [21], 95%; in the series with Echinochloa crus-galli [22] it was below 10%; with Abutilon theophrasti [23], 95%.
